The source of these data is patent US20110064794A1, “Drug Delivery System, its Preparation Process and Use” (priority 2008, published 2011).

One data set concerns white blood cell. Kind of data set: routine white blood cell count in H22 model mice. As to conditions: 20 mg·kg^−1. Format: in vivo, nude mice. The procedure: (§1) Transplanted liver cancer (H22) model in nude mice were established for antitumor drug tests. The nude mice were randomly divided into six groups (10 animals for each group): blank control group, cyclophosphamide positive control group (CTX 20 mg·kg^−1), treatment groups (high, medium and low dosage, 0.20 mg·kg^−1, 0.10 mg·kg^−1 and 0.05 mg·kg^−1) and solution group (non-nanoparticle formulation). The negative control group received injection of physiological saline. After inoculation for four days and with the tumors grown to a certain volume, the mice were treated on the 5th, 7th, 9th, 11th and 13th day. On the 14th day, the mice were sacrificed by cervical dislocation and weighed, dissected to peel off the tumor tissue which was weighed by an electronic balance. The tumor-inhibition rates were calculated by using the following formula: […]
(§2) all the data were expressed as mean±standard deviation (i.e. x±SD); the mice were bled at caudal vein for routine white blood cell count.

Data set [1] concerns Transplanted liver cancer (H22). Kind of data set: anti-tumor test in transplanted liver cancer (H22) model. Format: in vivo, nude mice. As to conditions: 20 mg/kg. The procedure: as §1, §2
For data set [2], the system named is human laryngocarcinoma epithelial cells (Hep-2). Put plainly: MTT inhibition of tumor cell growth, Hep-2. It is filed as cell-based. To be noted: 0.1, 1, 10 and 100 μM in DMSO, different culture times (FIG. 7). The text has this:
Microplate Reader (Switzerland Sunrise); 3-(4,5-dimethylthiazol-2-yl)-2, 5-diphenyl-2H-tetrazolium bromide (MTT) (America Fluka); DMSO (Sigma); RPMI 1640 media (GIBCO); fetal bovine serum (FBS) (Tian Jin TBD Center for Biotechnology Development).
Studies were respectively carried out on the inhibition effect of cucurbitacin B HSA nanoparticle on the growth of tumor cells in vitro in human laryngocarcinoma epithelial cells (Hep-2), human hepatoma carcinoma cell (HepG-2), human adenocarcinoma of lung cell (A549), and inhibition effect of the same dosage of cucurbitacin B emulsion and liposomes in these cells were compared.
Cells were cultured in RPMI 1640 media containing 10% FBS in an incubator at 37° C. and 5% CO2, and passaged every 3 to 4 days. […] OD (optical density) value of each well was determined in the microplate reader (at 570 nm wavelength). Cell inhibition rate was calculated according to OD value, and the following formula was used: cell inhibition rate (IR)=[(mean OD value of control group−mean OD value of blank group)−(mean OD value of test groups−mean OD value of blank group)]/(mean OD value of control group−mean OD value of blank group). […]
Inhibition effects of various formulations of CuB (cucurbitacin B/HSA solution, CuB HSA nanoparticle, CuB liposome and CuB emulsion) on Hep-2, A549 and HepG-2 tumor cells were detected.

The compound `O=P1(N(CCCl)CCCl)NCCCO1` (stereo not shown) [CTX, cyclophosphamide] returned a leukocyte number in the data set on white blood cell of 3.11e+09 L⁻¹. Moreover, in data set [1], the “Body weight (g) begin” value is 19.77 g, the “Body weight (g) end” value worked out at 21.08 g and the “Number of mice (begin/end)” value is recorded as 10/9. For the same compound, in data set [1] (day 14), the “Tumor-inhibition rate (%)” value was determined as 55.3% and the “Weight of tumor (g) (x ± SD)” value is reported as 1.26 ± 0.63 g.

`CC(=O)OC(C)(C)/C=C/C(=O)[C@](C)(O)[C@H]1[C@H](O)C[C@@]2(C)[C@@H]3CC=C4[C@H](C[C@H](O)C(=O)C4(C)C)[C@]3(C)C(=O)C[C@]12C` [cucurbitacin B]: the “inhibition effect on the growth of Hep-2 cells” value in data set [2] was “enhanced along with the extended time and increased dose”.
